The record followed here is patent US8084479B2, “Thiazole compounds and methods of use” (Amgen Inc., priority 2006, dated 2011).

As a reminder, the IC50 is the concentration needed to halve the response being measured. Read a low IC50 as greater potency.

The target of the experiment is PKBα (Homo sapiens, UniProt P31749). The experiment is described as follows: PKB kinase assay (P33-labeled ATP, peptide substrate, filter plate). The format is biochemical. As to conditions: PKBα enzyme (full length or kinase domain with pleckstrin domain deleted). The source says: The kinase assay for evaluating PKB activity comprises active PKB enzymes, a PKB specific substrate, and P^33-labeled ATP. […] The phosphorylated substrate was captured by a phosphocellulose membrane filter plate (MLLIPORE) and measured by a Wallac Microbeta liquid scintillation counter (Perkin Elmer).
Sequence of PKBα (P31749 118-480 limits assumed): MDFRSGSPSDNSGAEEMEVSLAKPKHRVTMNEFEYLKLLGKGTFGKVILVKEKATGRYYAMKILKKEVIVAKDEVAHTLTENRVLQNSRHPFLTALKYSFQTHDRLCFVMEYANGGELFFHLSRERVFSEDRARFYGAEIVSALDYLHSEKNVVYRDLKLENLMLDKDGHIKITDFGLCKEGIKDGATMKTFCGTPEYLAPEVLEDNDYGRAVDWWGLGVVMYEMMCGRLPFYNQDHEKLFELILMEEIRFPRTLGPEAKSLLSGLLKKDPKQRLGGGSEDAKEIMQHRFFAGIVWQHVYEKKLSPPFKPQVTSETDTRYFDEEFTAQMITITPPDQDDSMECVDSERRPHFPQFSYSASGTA

Compound `N[C@H](CNc1nc(-c2cccc(F)c2)c(-c2ccc3cnccc3c2)s1)Cc1ccc(C(F)(F)F)cc1` [Example 103, N—((S)-2-amino-3-(4-(trifluoromethyl)phenyl)propyl)-4-(3-fluorophenyl)-5-(isoquinolin-6-yl)thiazol-2-amine] showed an IC50 of 50 to 1000 nM.

`N[C@H](CNc1nc(-c2cccnc2)c(-c2ccc3cnccc3c2)s1)Cc1ccc(C(F)(F)F)cc1` [Example 104, N—((S)-2-Amino-3-(4-(trifluoromethyl)phenyl)propyl)-5-(isoquinolin-6-yl)-4-(pyridin-3-yl)thiazol-2-amine] registered an IC50 of 50 to 1000 nM.

The compound `N[C@H](CNc1nc(-c2ccccc2F)c(-c2ccc3cnccc3c2)s1)Cc1ccc(C(F)(F)F)cc1` [Example 105, N—((S)-2-Amino-3-(4-(trifluoromethyl)phenyl)propyl)-4-(2-fluorophenyl)-5-(isoquinolin-6-yl)thiazol-2-amine] gave an IC50 of less than 50 nM.

`N[C@H](CNc1nc(-c2ccccc2F)c(-c2ccc3cnccc3c2)s1)Cc1ccc(F)cc1` [Example 106, N—((S)-2-Amino-3-(4-fluorophenyl)propyl)-4-(2-fluorophenyl)-5-(isoquinolin-6-yl)thiazol-2-amine] displayed a half-inhibitory concentration (IC50) of 50 to 1000 nM.

Consider `N[C@H](CNc1nc(-c2ccccc2F)c(-c2ccc3c(c2)CC(=O)N3)s1)Cc1ccc(C(F)(F)F)cc1` [Example 107, 5-(2-((S)-2-Amino-3-(4-(trifluoromethyl)phenyl)-propylamino)-4-(2-fluorophenyl)thiazol-5-yl)indolin-2-one], for which the IC50 lay within 1000 to 10000 nM.

In turn, `N[C@H](CNc1ncc(-c2cc3ccncc3s2)s1)Cc1ccc(C(F)(F)F)cc1` [Example 108, N—((S)-2-amino-3-(4-(trifluoromethyl)phenyl)propyl)-5-(thieno[2,3-c]pyridin-2-yl)thiazol-2-amine] yielded an IC50 of less than 50 nM.

Regarding `C[C@@H](c1ccc(C(F)(F)F)cc1)[C@H](N)CNc1ncc(-c2ccc3[nH]c(=O)oc3c2)s1` [Example 109, 6-(2-((2S,3S)-2-Amino-3-(4-(trifluoromethyl)phenyl)butylamino)-thiazol-5-yl)benzo[d]oxazol-2(3H)-one], the IC50 is less than 50 nM.

The compound `C[C@@H](c1ccc(C(F)(F)F)cc1)[C@H](N)CNc1ncc(-c2ccc3cnccc3c2)s1` [Example 110, N-((2S,3S)-2-Amino-3-(4-(trifluoromethyl)phenyl)butyl)-5-(isoquinolin-6-yl)thiazol-2-amine] gave an IC50 of less than 50 nM.

As to `N[C@H](CNc1nc(Br)c(-c2nc3ccncc3s2)s1)Cc1ccc(C(F)(F)F)cc1` [Example 111, N—((S)-2-Amino-3-(4-(trifluoromethyl)phenyl)propyl)-4-bromo-5-(thiazolo[5,4-c]pyridin-2-yl)thiazol-2-amine], the IC50 was 50 to 1000 nM.

Turning to `N[C@H](CNc1ncc(-c2cc3oc(=O)[nH]c3cc2F)s1)Cc1ccc(C(F)(F)F)cc1` [Example 112, 6-(2-((S)-2-Amino-3-(4-(trifluoromethyl)phenyl)propylamino)thiazol-5-yl)-5-fluorobenzo[d]oxazol-2(3H)-one], the concentration for half-maximal inhibition (IC50) is less than 50 nM.

`N[C@H](CNc1ncc(-c2ccc3c(c2)CC(=O)N3)s1)Cc1ccc(Cl)cc1Cl` [Example 113, 5-(2-((S)-2-Amino-3-(2,4-dichlorophenyl)propylamino)thiazol-5-yl)indolin-2-one] showed an IC50 of 50 to 1000 nM.

`N[C@H](CNc1ncc(-c2ccc3c(c2)CC(=O)N3)s1)Cc1ccc(Cl)c(Cl)c1` [Example 114, 5-(2-((S)-2-Amino-3-(3,4-dichlorophenyl)propylamino)thiazol-5-yl)indolin-2-one] registered an IC50 of less than 50 nM.

In turn, `N[C@H](CNc1ncc(-c2ccc3[nH]c(=O)oc3c2)s1)Cc1ccc(Cl)c(Cl)c1` [Example 115, 6-(2-((S)-2-Amino-3-(3,4-dichlorophenyl)propylamino)thiazol-5-yl)benzo[d]oxazol-2(3H)-one] came in with an IC50 of less than 50 nM.

In the case of `Cc1ccc(C[C@H](N)CNc2ncc(-c3ccc4c(c3)CC(=O)N4)s2)cc1` [Example 116, 5-(2-((S)-2-Amino-3-p-tolylpropylamino)thiazol-5-yl)indolin-2-one], the IC50 lay in the range of 50 to 1000 nM.

Turning to `COC(=O)c1nc(NC[C@@H](N)Cc2ccc(C(F)(F)F)cc2)sc1-c1ccc2cnccc2c1` [Example 117, Methyl 2-((S)-2-amino-3-(4-(trifluoromethyl)phenyl)-propylamino)-5-(isoquinolin-6-yl)thiazole-4-carboxylate], the IC50 is less than 50 nM.

Compound `N[C@H](CNc1nc(-c2cnco2)c(-c2ccc3cnccc3c2)s1)Cc1ccc(C(F)(F)F)cc1` [Example 118, N—((S)-2-Amino-3-(4-(trifluoromethyl)phenyl)propyl)-5-(isoquinolin-6-yl)-4-(oxazol-5-yl)thiazol-2-amine] had an IC50 of 50 to 1000 nM.

In turn, `N[C@H](CNc1nc(C(=O)NCCO)c(-c2ccc3cnccc3c2)s1)Cc1ccc(C(F)(F)F)cc1` [Example 119, 2-((S)-2-Amino-3-(4-(trifluoromethyl)phenyl)-propylamino)-N-(2-hydroxyethyl)-5-(isoquinolin-6-yl)thiazole-4-carboxamide] yielded an IC50 of 1000 to 10000 nM.

For the compound `CNC(=O)c1nc(NC[C@@H](N)Cc2ccc(C(F)(F)F)cc2)sc1-c1ccc2cnccc2c1` [Example 120, 2-((S)-2-amino-3-(4-(trifluoromethyl)phenyl)-propylamino)-5-(isoquinolin-6-yl)-N-methylthiazole-4-carboxamide], the IC50 is less than 50 nM.

`NC(=O)c1nc(NC[C@@H](N)Cc2ccc(C(F)(F)F)cc2)sc1-c1ccc2cnccc2c1` [Example 121, 2-((S)-2-amino-3-(4-(trifluoromethyl)phenyl)propylamino)-5-(isoquinolin-6-yl)thiazole-4-carboxamide] came in with an IC50 of 1000 to 10000 nM.

Compound `COC(=O)c1nc(NC[C@@H](N)Cc2ccc(C(F)(F)F)cc2)sc1-c1ccc2c(c1)CC(=O)N2` [Example 122, Methyl 2-((S)-2-amino-3-(4-(trifluoromethyl)phenyl)propylamino)-5-(2-oxoindolin-5-yl)thiazole-4-carboxylate] showed a 50% inhibitory concentration (IC50) of 50 to 1000 nM.

Regarding `N[C@H](CNc1nc(CO)c(-c2ccc3c(c2)CC(=O)N3)s1)Cc1ccc(C(F)(F)F)cc1` [Example 123, 5-(2-((S)-2-Amino-3-(4-(trifluoromethyl)phenyl)propylamino)-4-(hydroxymethyl)thiazol-5-yl)indolin-2-one], the half-inhibitory concentration (IC50) is less than 50 nM.

`COC(=O)c1nc(NC[C@@H](N)Cc2ccc(C(F)(F)F)cc2)sc1-c1ccc2[nH]c(=O)oc2c1` [Example 124, Methyl 2-((S)-2-Amino-3-(4-(trifluoromethyl)phenyl)propylamino)-5-(2-oxo-2,3-dihydrobenzo[d]oxazol-6-yl)thiazole-4-carboxylate] displayed an IC50 of less than 50 nM.

The compound `N[C@H](CNc1nc(CO)c(-c2ccc3[nH]c(=O)oc3c2)s1)Cc1ccc(C(F)(F)F)cc1` [Example 125, 6-(2-((S)-2-Amino-3-(4-(trifluoromethyl)phenyl)propylamino)-4-(hydroxymethyl)thiazol-5-yl)benzo[d]oxazol-2(3H)-one] yielded a half-inhibitory concentration (IC50) of less than 50 nM.

`N[C@H](CNc1ncc(-c2ccc3c(c2)CC(=O)N3)s1)Cc1ccc(F)c(F)c1` [Example 126, 5-(2-((S)-2-Amino-3-(3,4-difluorophenyl)propylamino)thiazol-5-yl)indolin-2-one] had a concentration for half-maximal inhibition (IC50) of 50 to 1000 nM.
